Results on four compounds are retold here after ChEMBL document CHEMBL1201862, “PubChem BioAssay data set” (2004).

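Cells were grown in 96-well plates and exposed to each compound for 48 hours at five concentrations; endpoints were interpolated linearly between bracketing concentrations, or set to the highest concentration if not reached. The concentration for 50% growth inhibition is given as GI50.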 Calls of active or inactive are those of the source. No stated cut-off is given here; in the data, active = GI50 up to about 1.1 µM and inactive = higher.

Some test systems named below: KM-20L2; DMS-114; XF498; SNB-78; RXF 631; M19-MEL; LXFL 529; HOP-18; DMS-273.
Common to all, as to experiment: growth of human tumour cells (NCI), 48 h

As to `CN1CCc2c1nc(-c1ccc([N+](=O)[O-])cc1)c1c2N(C)CC1`, the GI50 is > 100 µM (inactive) in the experiment on KM-20L2; 32 µM (inactive) with DMS-114; > 100 µM (inactive) in the experiment with XF498; > 100 µM (inactive) in the experiment on SNB-78; > 100 µM (inactive) with RXF 631; > 100 µM (inactive) with M19-MEL. For the same compound, the results for the GI50 in the experiment on LXFL 529 and with HOP-18 were > 100 µM (inactive) and 0.16 µM (active), respectively.
Turning to `CN1CCCNCCN(CCc2ccccn2)CCCN(C)CC1`, the GI50 in the experiment with KM-20L2 was > 100 µM (inactive); in the experiment with DMS-114, > 42.6 µM (inactive); in the experiment with XF498, > 100 µM (inactive); in the experiment with SNB-78, > 100 µM (inactive); with RXF 631, > 100 µM (inactive); in the experiment with M19-MEL it was > 59.4 µM (inactive). The GI50 is 27.8 µM (inactive) with DMS-273, > 75.3 µM (inactive) with LXFL 529 and > 100 µM (inactive) in the experiment with HOP-18.
In the case of `COc1cc(/C=C(\OC(C)=O)c2ccc3c(c2)OCO3)cc(OC)c1OC`, the GI50 in the experiment with KM-20L2 was 31.1 µM (inactive); in the experiment with DMS-114, 13.4 µM (inactive); with XF498, 14 µM (inactive); in the experiment with SNB-78 it was 35.5 µM (inactive); in the experiment with RXF 631, > 10 µM (inactive); in the experiment with M19-MEL, 14.9 µM (inactive). Also, the results for the GI50 in the experiment with DMS-273, in the experiment with LXFL 529 and with HOP-18 were 14.8 µM (inactive), 14.4 µM (inactive) and 20.9 µM (inactive), respectively.
For the compound `CCN(CCCl)CCNc1c2ccccc2nc2ccc(OC)cc12`, the GI50 in the experiment on KM-20L2 is 0.448 µM (active); with DMS-114 it was 0.675 µM (active); in the experiment on XF498, 0.891 µM (active); with SNB-78, 0.891 µM (active); with RXF 631 it was 0.425 µM (active); in the experiment with M19-MEL, 0.703 µM (active). In addition, the results for the GI50 in the experiment on DMS-273, in the experiment with LXFL 529 and with HOP-18 were 0.294 µM (active), 0.237 µM (active) and 2.7 µM (inactive), respectively.
